Article PMC10669220, “In Vitro α-Glucosidase and α-Amylase Inhibition, Cytotoxicity and Free Radical Scavenging Profiling of the 6-Halogeno and Mixed 6,8-Dihalogenated 2-Aryl-4-methyl-1,2-dihydroquinazoline 3-Oxides” (Antioxidants, 2023)
Where “and” joins values, the source holds several entries; their conditions need not be identical. Identical values can stand only once.

Legend:
[1] = system: lung cancer (A549) cell line; test: MTT cytotoxicity assay, A549; conditions: for Cell viability percentage, A549: Table S3; for IC50: Homo sapiens, A549, read-out: IC50 A549
Description: (§1) Cells were cultured in sterile Dulbecco’s Minimal Essential Medium (DMEM, Gibco) supplemented with 10% fetal bovine serum (FBS) and 1% penicillin-streptomycin solution. […] Cell counting was carried out using a handheld automated cell counter (Scapter 3.0™, Merck, Burlington, MA, USA) and seeded (1 × 10^4 cells/well) into a 96-well plate. After 24 h, the cells were treated with different concentrations (1, 5, 10, 25 and 50 µM) of the test compounds and reference standards prepared in DMEM. The MTT solution (20 μL) prepared in PBS (5 mg/mL) was added to all the wells, and the plates were incubated for 4 h, followed by 1 h incubation with 100 µL of dimethyl sulfoxide (DMSO) to dissolve the formazan crystals. Untreated cells and 5% DMSO were included in the experiment as negative controls. All experiments were performed in triplicate. The plates were read at 570 nm at a reference wavelength of 630 nm using an ELISA plate reader (Varioskan Flash, ThermoFisher Scientific, Vantaa, Finland). The percentage of cell viability was calculated using the following formula, Cell viability %=At/Ab×100 where At represents the absorbance value of test compound and Ab the absorbance value of the blank. […] The data were expressed as means ± SD.

[2] = molecular target: T1, α-Glucosidase type 1 from baker's yeast (Saccharomyces cerevisiae, UniProt P53341); test: biochemical; conditions: IC50 α-Glucosidase, mean ± SD, triplicate; tested at 1, 5, 10, 25, 50 µM
T1 construct: purchased Sigma Aldrich (Pty) Ltd. G5003
Description: The assay was conducted in triplicate following a method described in our previous study. […] After pre-incubation, 17 µL of 2 mM PNP-G was added. The absorbances were recorded in a 96-well microplate at 400 nm using an Elisa plate reader (Varioskan Flash, ThermoFischer Scientific, Vantaa, Finland). The average values obtained from the readings were used to determine the IC50 and standard deviation values using a GraphPad Prism software (Version 8, GraphPad Software Inc., San Diego, CA, USA). The average values obtained from the absorbance readings were used to determine the IC50 and standard deviation values in GraphPad prism from nonlinear regression dose–response curves.

human α-amylase = molecular target: T2, human α-amylase (Homo sapiens, UniProt P04746); test: α-amylase inhibitor screening kit assay; type: biochemical; conditions: mean ± SD, triplicate; tested at 1, 5, 10, 25, 50 µM
T2 construct: purchased Abcam ab283391
T2 sequence (P04746 16-511): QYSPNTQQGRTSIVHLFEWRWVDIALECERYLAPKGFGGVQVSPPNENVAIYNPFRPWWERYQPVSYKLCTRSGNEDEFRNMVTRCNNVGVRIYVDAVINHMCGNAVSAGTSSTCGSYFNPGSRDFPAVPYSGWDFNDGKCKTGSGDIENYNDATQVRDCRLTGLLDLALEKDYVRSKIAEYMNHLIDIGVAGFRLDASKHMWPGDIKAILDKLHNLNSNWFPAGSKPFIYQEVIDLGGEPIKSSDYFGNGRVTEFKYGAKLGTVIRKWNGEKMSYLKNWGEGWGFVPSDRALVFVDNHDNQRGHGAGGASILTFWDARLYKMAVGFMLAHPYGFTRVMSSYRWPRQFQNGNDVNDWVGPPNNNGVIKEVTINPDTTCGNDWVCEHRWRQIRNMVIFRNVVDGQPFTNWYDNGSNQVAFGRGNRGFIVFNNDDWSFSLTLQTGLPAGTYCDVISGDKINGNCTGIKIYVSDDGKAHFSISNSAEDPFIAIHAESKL
Description: The α-amylase assay was performed in triplicate, using a 96-well plate following the procedure recommended by the manufacturer as outlined in the α-amylase inhibitor Screening Kit (Catalogue No. ab283391; Abcam). […] The average values obtained from the absorbance readings were used to determine the IC50 and standard deviation values in GraphPad prism from nonlinear regression dose–response curves.

[3] = NO free radical scavenging assay (sodium nitroprusside/Griess); conditions: mean ± SD; sodium nitroprusside, Griess reagent, 550 nm
Description: The assay was conducted following the method described in our previous study. A mixture of 10 mM sodium nitroprusside (20 µL), phosphate buffer (5 µL) and the test compound (5 µL) were incubated at 25 °C in a 96-well plate for 2.5 h. After incubation, 20 µL of Griess reagent (1.00 g of sulfanilic acid + 0.10 g naphthylethylene diamine dihydrochloride) was added to the previous mixture and allowed to stand for 30 min. […] Each experiment was performed in triplicate, and the average was taken. The average obtained from the absorbance readings was used to calculate the IC50 values in GraphPad prism from nonlinear regression dose–response curves.

[4] = system: breast cancer (MCF-7) cell line; test: MTT cytotoxicity assay, MCF-7; conditions: for Cell viability percentage, MCF-7: Table S2; for IC50: Homo sapiens, MCF7, read-out: IC50 MCF-7
Description: as §1

[5] = system: human embryonic kidney (HEK293-T) cell line; test: MTT cytotoxicity assay, HEK293-T; conditions: Homo sapiens, HEK-293T, read-out: IC50 Hek293-T
[6] = MTT cytotoxicity assay, HEK293-T; conditions: human, HEK293-T cells
[7] = DPPH radical scavenging assay; conditions: mean ± SD; 45 min in the dark; 512 nm
Description: The DPPH radical scavenging assay was conducted following the procedure described in our previous study. The test compounds and ascorbic acid at various concentrations (ranging from 0 µM to 50 µM) in DMSO were mixed with a solution of DPPH (0.20 mM) in methanol and incubated in the dark for 45 min. Five absorbance readings were recorded at 512 nm using an Elisa plate reader (Varioskan Flash, ThermoFisher Scientific, Vantaa, Finland). The experiment was carried out in triplicate, and averaged values from the absorbance readings were used to determine the IC50 and standard deviation values in GraphPad prism from nonlinear regression dose–response curves.

[8] = molecular target: superoxide dismutase (SOD); test: Superoxide dismutase (SOD) inhibitory assay (SOD assay kit-WST); type: biochemical; conditions: duplicate; 1-50 µM; 25 °C, 30 min; read-out: IC50 SOD inhibition
Description: The antioxidant activity of the compounds 3a, 3c, 3f, 3i, 3l, 3n and 3p against superoxide radicals was assessed via enzymatic assay in vitro using the SOD assay kit-WST according to the manufacturer’s instructions (Sigma-Aldrich®). The reaction mixtures in the SOD kit were combined with 20 μL of working solution of the samples in a 96-well plate. Plates were gently shaken and then incubated at 25 °C for 30 min. The reference positive control, diphenyleneiodonium (DPI), and the compounds were tested at 01, 5, 10, 25 and 50 µM in duplicates. The inhibition activity of SOD on the reaction of […] generated the superoxide with a tetrazolium salt, which was then determined by measuring the absorbance of the mixtures at a wavelength of 450 nm using an Elisa plate reader (Varioskan Flash, ThermoFisher Scientific, Vantaa, Finland). The SOD activity values obtained used to calculate the percentage of inhibition. % SOD activity=ODx− ODy/ODx ×100% where ODx is the absorbance of the blank (untreated SOD) and ODy is the absorbance of the sample (treated SOD). All tests were performed in duplicate.

[9] = system: NO generated from nitric oxide synthase (NOS); test: Inhibitory activity against NO generated from NOS (EnzyChrom kit); type: biochemical; conditions: mean ± SD, 1-50 µM
Description: A nitric oxide synthase (NOS) assay was performed following the procedure recommended by the manufacturer as outlined in the screening kit (Catalogue No. EINO-100; EnzyChrom). Various concentrations (1, 5, 10, 25 and 50 µM) of the compounds 3a, 3c, 3f, 3i, 3l, 3n and 3p and the reference standard, ascorbic acid, were prepared. The enzyme solution (12.5 U/mL NOS, 10 µL), assay buffer (25 µL) and test samples (5 µL) were incubated at room temperature for 15 min. After pre-incubation, 10 µL of reaction mix was added and incubated at 37 °C for 60 min. A 200 µL quantity of NO detection reagent was added, the detection reaction was run at 37 °C for 60 min, and absorbance was determined at a wavelength of 540 nm using an Elisa plate reader (Varioskan Flash, ThermoFisher Scientific, Vantaa, Finland). The average of three readings was used to calculate the NOS percentage inhibition using the following formula: % Inhibition=1−ΔOD Test Compd/ΔOD No Inhibitor ×100%
The IC50 values and standard deviation values were determined from nonlinear regression dose–response curve and compared with the results in GraphPad prism.

T1 sequence (P53341 whole entry): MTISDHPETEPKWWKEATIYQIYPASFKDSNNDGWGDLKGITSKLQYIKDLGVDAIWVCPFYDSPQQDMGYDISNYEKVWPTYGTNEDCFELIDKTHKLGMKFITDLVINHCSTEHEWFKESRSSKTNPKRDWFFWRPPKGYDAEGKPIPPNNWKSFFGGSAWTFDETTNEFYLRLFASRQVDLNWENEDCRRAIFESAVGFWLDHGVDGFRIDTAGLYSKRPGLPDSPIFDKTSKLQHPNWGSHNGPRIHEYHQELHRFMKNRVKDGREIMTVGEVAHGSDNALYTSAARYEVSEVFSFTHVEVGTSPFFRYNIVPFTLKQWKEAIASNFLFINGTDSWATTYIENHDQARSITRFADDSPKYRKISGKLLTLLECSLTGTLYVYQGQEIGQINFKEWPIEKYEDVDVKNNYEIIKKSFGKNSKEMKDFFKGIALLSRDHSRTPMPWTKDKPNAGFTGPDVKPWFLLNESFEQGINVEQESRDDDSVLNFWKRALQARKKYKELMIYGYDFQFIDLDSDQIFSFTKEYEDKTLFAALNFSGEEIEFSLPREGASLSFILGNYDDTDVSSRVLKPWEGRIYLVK

Row | SMILES | Cell viability percentage, A549 ([1]; Conc. 1 (µM per method)) | Cell viability percentage, A549 ([1]; Conc. 5 (µM per method)) | Cell viability percentage, A549 ([1]; Conc. 10 (µM per method)) | Cell viability percentage, A549 ([1]; Conc. 25 (µM per method)) | Cell viability percentage, A549 ([1]; Conc. 50 (µM per method)) | IC50 [1] | IC50 [2] | IC50 (human α-amylase) | melting point | IC50 [3] | Cell viability percentage, MCF-7 ([4]; Conc. 1 (µM per method)) | Cell viability percentage, MCF-7 ([4]; Conc. 5 (µM per method)) | Cell viability percentage, MCF-7 ([4]; Conc. 10 (µM per method)) | Cell viability percentage, MCF-7 ([4]; Conc. 25 (µM per method)) | Cell viability percentage, MCF-7 ([4]; Conc. 50 (µM per method)) | IC50 [4] | IC50 [5] | viability at 1 µM [6] | IC50 [7] | IC50 [9] | other results
1 | CC1=[N+]([O-])C(c2ccc(Cl)cc2)Nc2ccc(Br)cc21 (centres unmarked) [Compound 3c] | 73,4391% | 66,5879% | 54,3481% | 41,782% | 29,5534% | 15.26 ± 0.09 µM | 1.04 µM and 0.92 µM | 30.48 ± 0.02 µM | 171 to 173 °C | 7.45 ± 0.002 µM | 46,7898% | 44,7938% | 42,5981% | 41,6999% | 37,2256% | 25.48 ± 0.08 µM | 27.54 ± 0.05 µM | 64.7% | 33.52 ± 0.025 µM | 1.1 ± 0.003 µM | viability at 5 µM [6]: 62.9%; viability at 10 µM [6]: 50.3%; viability at 25 µM [6]: 34.2%; viability at 50 µM [6]: 23.5%; IC50 [8]: 4.6 ± 0.14 µM
2 | COc1ccc(C2Nc3c(I)cc(Br)cc3C(C)=[N+]2[O-])cc1 (centres unmarked) [Compound 3l] | 89,6276% | 82,1465% | 60,333% | 45,5732% | 45,4944% | 16.34 ± 0.06 µM | 0.92 µM and 1.04 µM | 54.18 ± 0.01 µM | 153 to 155 °C | 67.81 ± 0.004 µM | 66,3742% | 55,5856% | 51,5919% | 35,1896% | 17,5102% | 18.12 ± 0.1 µM | 32.39 ± 0.17 µM | 80.4% | 27.7 ± 0.04 µM | 1.06 ± 0.005 µM | viability at 5 µM [6]: 69.4%; viability at 10 µM [6]: 59.2%; viability at 25 µM [6]: 25.5%; viability at 50 µM [6]: 19.7%; IC50 [8]: 5.6 ± 0.17 µM
3 | O=C1O[C@H]([C@@H](O)CO)C(O)=C1O [Ascorbic acid, ascorbic acid, reference compound] |  |  |  |  |  |  |  |  |  | 5.39 ± 0.005 µM |  |  |  |  |  |  |  |  | 5.02 ± 0.009 µM | 0.999 ± 0.006 µM | 
